The text below walks through data of patent US20240226128A1, “NOVEL COMPOUNDS WITH DUAL INHIBITION ACTIVITY AGAINST SARS-COV-2 CRITICAL ENZYMES RDRP, MPRO AND HUMAN TMPRSS2” (priority 2022, published 2024).

The subject of one assay is SARS-CoV-2. As to conditions: comparator, FDA approved drug; cited from earlier work.
The subject of assay [1] is SARS-CoV-2 (NRC-03-nhCoV strain). As to the kind of experiment: In vitro anti-SARS-CoV-2 activity of RH 1-23 compounds (Vero-E6 cells, crystal violet). Type of assay: cell-based. As to the method:
The antiviral activity was carried out as previously described. Briefly, 96-well tissue culture plates were seeded with 2.4×10^4 Vero-E6 cells/and incubated overnight in Dulbecco's Modified Eagle's medium (DMEM) containing 10% Fetal Bovine Serum (FBS) and 1% penicillin/streptomycin antibiotic mixture at a humidified 37° C. incubator under 5% CO2. The cells were treated with SARS-CoV-2 (NRC-03-nhCoV strain, accession #EPI_ISL_430820) for viral adsorption, which was further overlaid with 50 μl DMEM containing varying concentrations of the tested compounds. Following incubation at 37° C. and 5% C02 for 72 h, the cells were fixed with 100 μl of 4% paraformaldehyde for 20 min and stained at room temperature with 0.1% crystal violet in distilled water for 15 min. The crystal violet dye was then dissolved in 100 μl methanol and the optical density of the obtained color was measured at 570 nm using Anthos Zenyth 200 rt plate reader (Anthos Labtec Instruments, Heerhugowaard, Netherlands).

Turning to `CC(C)C(=O)OC[C@H]1O[C@@H](n2ccc(NO)nc2=O)[C@H](O)[C@@H]1O` [Molnupiravir], the “in vitro antiviral activity against SARS-CoV-2” value in the assay on SARS-CoV-2 is “μM range”.
On to `N#C[C@@]1(c2ccc3c(NC(=O)c4ccc(NC(=N)N)cc4)ncnn23)O[C@H](CO)[C@@H](O)[C@H]1O` [RH11, (2R,3R,4S,5R)-N-[7-(2-cyano-3,4-dihydroxy-5-hydroxymethyl-tetrahydro-furan-2-yl)-pyrrolo[2,1-f]-[1,2,4]-triazin-4-yl]-4-guanidino-benzamide], for which, in assay [1], the “in vitro antiviral activity against SARS-CoV-2” value is “nM range”.
The same measure, in the same setting: as for `CC(C)c1cc(=O)oc2ccc(OC(=O)c3ccc(NC(=N)N)cc3)cc12` [RH12, 4-guanidino-benzoic acid 4-isopropyl-2-oxo-2H-chromen-6-yl ester], the entry is “nM range”.
